# Biological target: T1, Recombinant human TLR7 (Homo sapiens, UniProt Q9NYK1)
# T1 construct: expressed in transfected cells; host or cells: HEK293 cell line stably expressing the pNiFty2-SEAP reporter plasmid; TLR7 in vector pUNO, blasticidin selection
# T1 sequence (Q9NYK1 27-1049): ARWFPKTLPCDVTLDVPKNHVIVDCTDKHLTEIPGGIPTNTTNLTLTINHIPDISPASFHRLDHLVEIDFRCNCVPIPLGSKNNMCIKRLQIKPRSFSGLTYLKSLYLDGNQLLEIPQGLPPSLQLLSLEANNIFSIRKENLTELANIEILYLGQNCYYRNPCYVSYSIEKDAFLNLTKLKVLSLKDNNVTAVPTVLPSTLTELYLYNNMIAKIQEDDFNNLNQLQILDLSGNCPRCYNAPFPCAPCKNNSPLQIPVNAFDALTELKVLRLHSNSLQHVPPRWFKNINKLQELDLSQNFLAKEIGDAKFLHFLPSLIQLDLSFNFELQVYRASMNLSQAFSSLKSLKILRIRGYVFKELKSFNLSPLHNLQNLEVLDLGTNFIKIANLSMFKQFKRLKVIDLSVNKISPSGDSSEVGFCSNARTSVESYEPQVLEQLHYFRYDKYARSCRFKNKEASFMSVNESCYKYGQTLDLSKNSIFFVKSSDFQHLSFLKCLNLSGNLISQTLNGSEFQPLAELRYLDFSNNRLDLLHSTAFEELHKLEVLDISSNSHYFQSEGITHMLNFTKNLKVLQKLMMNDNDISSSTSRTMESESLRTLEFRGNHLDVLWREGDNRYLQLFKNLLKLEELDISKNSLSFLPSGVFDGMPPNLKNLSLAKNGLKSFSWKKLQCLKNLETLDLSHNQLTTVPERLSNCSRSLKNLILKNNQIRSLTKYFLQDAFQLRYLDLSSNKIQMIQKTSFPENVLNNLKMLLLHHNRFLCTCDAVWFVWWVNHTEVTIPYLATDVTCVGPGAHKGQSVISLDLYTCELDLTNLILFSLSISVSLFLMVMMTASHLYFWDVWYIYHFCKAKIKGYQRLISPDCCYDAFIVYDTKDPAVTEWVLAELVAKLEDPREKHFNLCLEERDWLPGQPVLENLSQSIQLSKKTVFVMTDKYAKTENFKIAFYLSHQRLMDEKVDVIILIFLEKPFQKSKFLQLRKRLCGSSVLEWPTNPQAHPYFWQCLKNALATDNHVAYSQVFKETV
# Test: Human TLR7 assay (SEAP reporter in HEK293 cells)
# Type: cell-based
# Conditions: HEK293 cell line stably expressing human TLR7 and pNiFty2-SEAP reporter; SEAP induction after overnight incubation at 37° C., 0.1% (v/v) DMSO
# Text: Recombinant human TLR7 was stably expressed in a HEK293 cell line already stably expressing the pNiFty2-SEAP reporter plasmid; integration of the reporter gene was maintained by selection with the antibiotic zeocin. The most common variant sequence of human TLR7 (represented by the EMBL sequence AF240467) was cloned into the mammalian cell expression vector pUNO and transfected into this reporter cell-line. Transfectants with stable expression were selected using the antibiotic blasticidin. In this reporter cell-line, expression of secreted alkaline phosphatase (SEAP) is controlled by an NFkB/ELAM-1 composite promoter comprising five NFkB sites combined with the proximal ELAM-1 promoter. TLR signaling leads to the translocation of NFkB and activation of the promoter results in expression of the SEAP gene. TLR7-specific activation was assessed by determining the level of SEAP produced following overnight incubation of the cells at 37° C. with the standard compound in the presence of 0.1% (v/v) dimethylsulfoxide (DMSO). Concentration dependent induction of SEAP production by compounds was expressed as the concentration of compound which produced half of the maximal level of SEAP induction for that compound (pEC50).
row,Compound,EC50
1,"CCCCOc1nc(N)c2[nH]c(=O)n(CCCN(Cc3ccccc3)C(C)=O)c2n1 [Example 1, N-[3-(6-Amino-2-butoxy-8-oxo-7,8-dihydro-9H-purin-9-yl)propyl]-N-benzylacetamide]",63.1 nM
2,"CCCCOc1nc(N)c2[nH]c(=O)n(CCCN(Cc3ccccc3)C(=O)COC)c2n1 [Example 2, N-[3-(6-Amino-2-butoxy-8-oxo-7,8-dihydro-9H-purin-9-yl)propyl]-N-benzyl-2-methoxyacetamide]",50.1 nM
3,"CCCCOc1nc(N)c2[nH]c(=O)n(CCCN(Cc3ccccc3)C(=O)CCC(=O)OC)c2n1 [Example 3, Methyl 4-[[3-(6-amino-2-butoxy-8-oxo-7,8-dihydro-9H-purin-9-yl)propyl](benzyl)amino]-4-oxobutanoate]",39.8 nM
4,"CCCCOc1nc(N)c2[nH]c(=O)n(CCCN(Cc3ccccc3)C(=O)CCOC)c2n1 [Example 4, N-[3-(6-Amino-2-butoxy-8-oxo-7,8-dihydro-9H-purin-9-yl)propyl]-N-benzyl-3-methoxypropanamide]",79.4 nM
5,"CCCCOc1nc(N)c2[nH]c(=O)n(CCCN(Cc3ccccc3)C(=O)CCC(=O)N(C)C)c2n1 [Example 5, N-[3-(6-Amino-2-butoxy-8-oxo-7,8-dihydro-9H-purin-9-yl)propyl]-N-benzyl-N′,N′-dimethylsuccinamide]",79.4 nM
6,"CCCCOc1nc(N)c2[nH]c(=O)n(CCCN(Cc3ccccc3)C(=O)Cc3ccc(S(C)(=O)=O)cc3)c2n1 [Example 6, N-[3-(6-Amino-2-butoxy-8-oxo-7,8-dihydro-9H-purin-9-yl)propyl]-N-benzyl-2-[4-(methylsulfonyl)phenyl]acetamide]",79.4 nM
7,"CCCCOc1nc(N)c2[nH]c(=O)n(CCCN(Cc3ccccc3)C(=O)CN3CCN(Cc4ccccc4)CC3)c2n1 [Example 7, N-[3-(6-Amino-2-butoxy-8-oxo-7,8-dihydro-9H-purin-9-yl)propyl]-N-benzyl-2-(4-benzylpiperazin-1-yl)acetamide]",7.94 nM
8,"CCCCOc1nc(N)c2[nH]c(=O)n(CCCN(Cc3ccccc3)C(=O)Cn3nc(C)nc3C)c2n1 [Example 8, N-[3-(6-Amino-2-butoxy-8-oxo-7,8-dihydro-9H-purin-9-yl)propyl]-N-benzyl-2-(3,5-dimethyl-1H-1,2,4-triazol-1-yl)acetamide]",158 nM
9,"CCCCOc1nc(N)c2[nH]c(=O)n(CCCN(Cc3ccccc3)C(=O)CCc3cnccn3)c2n1 [Example 9, N-[3-(6-Amino-2-butoxy-8-oxo-7,8-dihydro-9H-purin-9-yl)propyl]-N-benzyl-3-pyrazin-2-ylpropanamide]",50.1 nM
10,"CCCCOc1nc(N)c2[nH]c(=O)n(CCCN(Cc3ccccc3)C(=O)CCN(C)C)c2n1 [Example 10, N-[3-(6-Amino-2-butoxy-8-oxo-7,8-dihydro-9H-purin-9-yl)propyl]-N-benzyl-N^3,N^3-dimethyl-β-alaninamide]",31.6 nM
